{
  "source": "the METLIN SMRT retention time set (Domingo-Almenara et al. 2019)",
  "data": [
    {"assay": "gradient 5% acetonitrile 3 min, to 50% in 2 min, to 85% in 15 min, held 3 min, 100 µL/min", "conditions": "column: Zorbax Extend-C18 2.1 x 50 mm; eluents: water / acetonitrile, 0.1% formic acid", "how_it_was_run": "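Retention time was recorded from adduct peaks, which were picked computationally and each inspected manually. Pure standards ran in mixtures of ~100 molecules on HPLC coupled to a quadrupole time-of-flight mass spectrometer, in positive and negative ionization mode, through a Zorbax Extend-C18 column (2.1 × 50 mm, 1.8 μm) at 100 μL/min. Eluents were water and acetonitrile, each with 0.1% formic acid.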", "units": {"RP-LC retention time": "s"}, "values": [
      {"smiles": "COCc1cc(=O)n(CC(=O)Nc2ccc(Cl)cc2)c(N)n1", "RP-LC retention time": 641},
      {"smiles": "Cc1cc(C)cc(C(=O)N2CCC(COc3ccc(C(=O)NC4CC4)cc3)CC2)c1", "RP-LC retention time": 887},
      {"smiles": "Cc1ccc(-c2nc3cnccn3c2NCCC(=O)NCC(C)C)cc1", "RP-LC retention time": 690},
      {"smiles": "Cc1[nH]c2ccccc2c1C(=O)C(=O)NC(C)c1ccccc1", "note": "(stereo unspecified)", "RP-LC retention time": 794},
      {"smiles": "CCc1nc2c(NC(=O)c3ccc(Br)cc3)cccn2n1", "RP-LC retention time": 914},
      {"smiles": "COCc1nnc(-c2ccc(F)cc2)o1", "RP-LC retention time": 740},
      {"smiles": "CCCN1C(=O)c2cc(S(=O)(=O)Nc3cccc(F)c3)ccc2Oc2cccnc21", "RP-LC retention time": 1060},
      {"smiles": "CCOCCCNC(=O)CN1C(=O)C2CCCCN2c2ccc(S(=O)(=O)N3CCCC3)cc21", "note": "(stereo unspecified)", "RP-LC retention time": 819},
      {"smiles": "CCOc1ccc(C(=O)Nc2nc(-c3ccccc3)cs2)cc1Cl", "RP-LC retention time": 1260},
      {"smiles": "CCn1nccc1-c1cccc(-c2noc(-c3cccs3)n2)c1", "RP-LC retention time": 1130},
      {"smiles": "Cc1ccc(S(=O)(=O)NC2CCN(c3ccccc3)C2=O)cc1", "note": "(stereo unspecified)", "RP-LC retention time": 876},
      {"smiles": "CCN1C(=O)c2cccnc2Sc2cc(C(=O)N3CCCC3)ccc21", "RP-LC retention time": 684},
      {"smiles": "c1ccc(CCc2nc3nccc(-c4ccncc4)n3n2)cc1", "RP-LC retention time": 713},
      {"smiles": "CO[C@H]1C(=O)N(C(C)C)[C@H]1C1CCN(C(=O)c2cnccn2)CC1", "RP-LC retention time": 621},
      {"smiles": "COC1CCC12CCN(S(=O)(=O)c1ccc(C)c(F)c1)CC2", "note": "(stereo unspecified)", "RP-LC retention time": 1090},
      {"smiles": "COc1ccc(Cl)cc1C(=O)NCCc1c[nH]c2ccc(C)cc12", "RP-LC retention time": 657},
      {"smiles": "Cc1ccc2c(c1)N(C(=O)Cn1c(=O)cc(C(=O)N3CCCCC3)c3ccccc31)CCO2", "RP-LC retention time": 1010},
      {"smiles": "Cc1ccc(C)c(NS(=O)(=O)c2cn(C(C)C)c3ncccc23)c1", "RP-LC retention time": 960},
      {"smiles": "CCOCC(=O)N1CC(F)(F)C[C@H]1c1nc(COC)no1", "RP-LC retention time": 675},
      {"smiles": "CCCS(=O)(=O)N1CCN(C(=O)c2cc(-c3ccc(OC)cc3)n[nH]2)CC1", "RP-LC retention time": 745},
      {"smiles": "O=C(Cn1cccc1-c1nc(-c2ccccc2)cs1)N1CCN(C(=O)c2ccco2)CC1", "RP-LC retention time": 899},
      {"smiles": "O=C(NCc1ccc(F)cc1)c1cn2cc(Cl)ccc2n1", "RP-LC retention time": 799},
      {"smiles": "Cc1ccc(-c2ccc(=O)n(Cc3nc(-c4cccs4)no3)n2)cc1", "RP-LC retention time": 990},
      {"smiles": "COC(=O)c1ccc2c(=O)n(-c3ccc(F)c(Cl)c3)c(N3CCN(c4ccccn4)CC3)nc2c1", "RP-LC retention time": 762},
      {"smiles": "COc1ccc(-c2cc3nc(C)cc(N4CCN(c5nc(C)cc(C)n5)CC4)n3n2)cc1OC", "RP-LC retention time": 735},
      {"smiles": "COc1cccc(-c2noc(NC3CC3)n2)c1", "RP-LC retention time": 787},
      {"smiles": "O=C(c1ccccc1F)N1CCCn2cc(-c3ccccc3F)nc21", "RP-LC retention time": 792},
      {"smiles": "O=C(Cn1ccnc1)N1CCC(OCc2nc(C3CC3)no2)CC1", "RP-LC retention time": 582},
      {"smiles": "O=C(c1ccco1)N1CCC(c2nc(-c3ccccc3)no2)C1", "note": "(stereo unspecified)", "RP-LC retention time": 822},
      {"smiles": "CC(=O)N1CCc2c(sc(NC(=O)C3(c4ccc(Cl)cc4)CCCC3)c2C#N)C1", "RP-LC retention time": 946},
      {"smiles": "Cc1ccc(-n2nc(N3CCCC(C(=O)Nc4cc(F)ccc4F)C3)ccc2=O)cc1Cl", "note": "(stereo unspecified)", "RP-LC retention time": 1060},
      {"smiles": "Cc1[nH]c(/C=C2\\C(=O)Nc3ccc(S(=O)(=O)Cc4c(Cl)cccc4Cl)cc32)c(C)c1C(=O)N1CCC[C@@H]1CN1CCCC1", "RP-LC retention time": 787},
      {"smiles": "Cc1ccc(C(C)NC(=O)c2cn3ccncc3n2)c(C)c1", "note": "(stereo unspecified)", "RP-LC retention time": 787},
      {"smiles": "CCCCOc1ccc(C(=O)Nc2cc(OC)ccc2OC)cc1", "RP-LC retention time": 1110},
      {"smiles": "Cc1ccc(NC(=O)N2[C@H]3CC[C@@H]2c2cncnc2C3)cc1F", "RP-LC retention time": 738},
      {"smiles": "Cc1coc2cc3oc(=O)c(CC(=O)N[C@H](Cc4c[nH]c5ccccc45)C(=O)O)c(C)c3cc12", "RP-LC retention time": 772},
      {"smiles": "CC(=O)Nc1ccc(OCC(=O)NCc2ccc(N3CCOCC3)cc2)nc1", "RP-LC retention time": 604},
      {"smiles": "Cc1nc(C)c(C(=O)Nc2ccc(F)c(C)c2)s1", "RP-LC retention time": 810},
      {"smiles": "O=S(=O)(NCc1ccccc1F)c1ccccc1-c1nc(-c2cccc(F)c2)no1", "RP-LC retention time": 1170},
      {"smiles": "Cc1ccc(NC(=O)C2CCN(C(=O)c3ncn4c3COC(c3ccc(F)cc3)C4)CC2)cc1Cl", "note": "(stereo unspecified)", "RP-LC retention time": 901},
      {"smiles": "COc1ccc(N2CC(c3noc(-c4cccc(Cl)c4)n3)CC2=O)cc1", "note": "(stereo unspecified)", "RP-LC retention time": 1030},
      {"smiles": "Cc1cc2c(c(=O)n(-c3ccc(F)cc3)c(=O)n2CC(=O)Nc2ccc(Br)cc2)n1C", "RP-LC retention time": 932},
      {"smiles": "O=c1ccc(-c2ccccc2Cl)nn1Cc1nc(-c2ccc3c(c2)OCO3)no1", "RP-LC retention time": 996},
      {"smiles": "CCN(CC)CCOCCOC(=O)C(CC)(CC)c1ccccc1", "RP-LC retention time": 763},
      {"smiles": "O=C(CCc1ccccc1)N1CCN(C(=O)c2nnn3c2COC(c2ccccc2)C3)CC1", "note": "(stereo unspecified)", "RP-LC retention time": 891},
      {"smiles": "COc1ccc(C(=O)NCc2c(C)noc2C)cn1", "RP-LC retention time": 633},
      {"smiles": "O=C(CN1C(=O)C2CCCCN2c2ccc(S(=O)(=O)N3CCCC3)cc21)N1CCCCCC1", "note": "(stereo unspecified)", "RP-LC retention time": 918},
      {"smiles": "O=c1c2cc(-c3ccc4c(c3)OCO4)nn2ccn1Cc1nc(-c2cccc(C(F)(F)F)c2)no1", "RP-LC retention time": 1110},
      {"smiles": "COC(=O)c1cc2c(=O)n(CCc3ccc(OC)c(OC)c3)ccc2nc1C", "RP-LC retention time": 769},
      {"smiles": "O=C(NCc1ccc2c(c1)OCO2)c1ccc2ccnc(N3CCN(C(=O)c4ccco4)CC3)c2c1", "RP-LC retention time": 679},
      {"smiles": "CCCc1noc(-c2ccc3nnc(CC(=O)Nc4ccc(C)c(C)c4)n3c2)n1", "RP-LC retention time": 940},
      {"smiles": "CC(C)Cn1cc(S(=O)(=O)Nc2ccccc2Cl)c2cccnc21", "RP-LC retention time": 1020},
      {"smiles": "CC(C)NC(=O)CN1C(=O)CC(c2ccc(Br)s2)=Nc2ccccc21", "RP-LC retention time": 929},
      {"smiles": "O=C(Nc1cc(F)ccc1F)C1CCN(S(=O)(=O)c2cccnc2)CC1", "RP-LC retention time": 784},
      {"smiles": "O=C(Cc1ccc(NC(=O)c2ccsc2)cc1)NCc1cccs1", "RP-LC retention time": 725},
      {"smiles": "Cn1cc(-c2noc(-c3ccc(F)cc3)n2)ccc1=O", "RP-LC retention time": 827},
      {"smiles": "Cc1ccccc1N1CCN(C(=O)c2ccc(CN3CCN(C(C)C)C(=O)C3=O)cc2)CC1", "RP-LC retention time": 811},
      {"smiles": "O=C(O)CSc1nnc(Br)n1-c1ccc(C2CC2)c2ccccc12", "RP-LC retention time": 949},
      {"smiles": "Cc1ccc(C2=NC3(CCN(C(=O)c4ccco4)CC3)ON2)cc1", "RP-LC retention time": 747},
      {"smiles": "COc1ccc(C2C(C(=O)N3CCCCC3)=C(C)NC3=C2C(=O)CC(C)(C)C3)cc1OC", "note": "(stereo unspecified)", "RP-LC retention time": 675},
      {"smiles": "COc1ccc(S(=O)(=O)N2CCCC(C(=O)NCCC3=CCCCC3)C2)cc1Cl", "note": "(stereo unspecified)", "RP-LC retention time": 1070},
      {"smiles": "Cc1sc(NC(=O)Cc2csc(-c3ccccc3)n2)nc1-c1ccc(F)cc1", "RP-LC retention time": 1200},
      {"smiles": "Cc1cc(NC(=O)NCCc2c(C)nn(C)c2C)ccc1Br", "RP-LC retention time": 705},
      {"smiles": "Cc1ccc(-c2nc(-c3ccc(-c4noc(CNC(=O)c5ccco5)n4)cc3)cs2)s1", "RP-LC retention time": 1130},
      {"smiles": "Cc1cc2c(cc1S(=O)(=O)N1CCC(C(=O)NCCC3=CCCCC3)CC1)OCC(=O)N2", "RP-LC retention time": 820},
      {"smiles": "COc1ccc(OC)c(NC(=O)N2CCN(c3ccc(=O)n(-c4ccc(C)cc4)n3)CC2)c1", "RP-LC retention time": 835}
    ]}
  ]
}
